Test results: patent US20150141435A1, “2-PYRIDONE ANTIMICROBIAL COMPOSITIONS” (Emergent BioSolutions, priority 2010, published 2015)
Counter-ions that a name gives are not always drawn. Like-named read-outs stand apart in the source and are kept apart here.

Experiments:
Type in all cases: cell-based
[1] = system: S. aureus BAA-1720 (MRSA, FQ-R); experiment: MIC, CLSI broth microdilution (Table 1); conditions: Staphylococcus aureus, read-out: MIC S. aureus BAA-1720 (MRSA, FQ-R)
K. pneumoniae ATCC 33495 = experiment: MIC, CLSI broth microdilution (Table 2); conditions: Klebsiella pneumoniae
[2] = system: S. maltophilia ATCC 17677; experiment: MIC, CLSI broth microdilution (Table 2); conditions: Stenotrophomonas maltophilia
H. influenzae ATCC 49247 = experiment: MIC, CLSI broth microdilution (Table 2); conditions: Haemophilus influenzae
E. faecium ATCC 19434 = experiment: MIC, CLSI broth microdilution (Table 1); conditions: Enterococcus faecium
S. aureus ATCC 25923 = experiment: MIC, CLSI broth microdilution (Table 1); conditions: Staphylococcus aureus
A. baumannii ATCC 19606 = experiment: MIC, CLSI broth microdilution (Table 2); conditions: Acinetobacter baumannii
S. pneumonia ATCC 49619 = experiment: MIC, CLSI broth microdilution (Table 1); conditions: Streptococcus pneumoniae
P. aeruginosa ATCC 27853 = experiment: MIC, CLSI broth microdilution (Table 2); conditions: Pseudomonas aeruginosa
[3] = system: S. aureus ATCC 43300 (MRSA, FQ-S); experiment: MIC, CLSI broth microdilution (Table 1); conditions: Staphylococcus aureus, read-out: MIC S. aureus ATCC 43300 (MRSA, FQ-S)
E. faecalis ATCC 29212 = experiment: MIC, CLSI broth microdilution (Table 1); conditions: Enterococcus faecalis
E. coli ATCC 25922 = experiment: MIC, CLSI broth microdilution (Table 2); conditions: Escherichia coli
[4] = Gram positive, MHB, 37° C., 16-20 hours
[5] = ATCC33495, Gram negative, MHB, 37° C., 16-20 hours, read-out: MIC K. pneumoniae ATCC 33495
[6] = ATCC17677, Gram negative, MHB, 37° C., 16-20 hours, read-out: MIC S. maltophilia ATCC 17677
[7] = ATCC49247, Gram negative, MHB, 37° C., 16-20 hours, read-out: MIC H. influenzae ATCC 49247
[8] = ATCC19434, Gram positive, MHB, 37° C., 16-20 hours, read-out: MIC E. faecium ATCC 19434
[9] = ATCC25923, Gram positive, MHB, 37° C., 16-20 hours, read-out: MIC S. aureus ATCC 25923
[10] = ATCC19606, Gram negative, MHB, 37° C., 16-20 hours, read-out: MIC A. baumannii B. ATCC 19606
[11] = ATCC49619, Gram positive, MHB, 37° C., 16-20 hours, read-out: MIC S. pneumonia ATCC 49619
[12] = ATCC27853, Gram negative, MHB, 37° C., 16-20 hours, read-out: MIC P. aeruginosa ATCC 27853
[13] = ATCC29212, Gram positive, MHB, 37° C., 16-20 hours, read-out: MIC E. faecalis ATCC 29212
[14] = ATCC25922, Gram negative, MHB, 37° C., 16-20 hours, read-out: MIC E. coli ATCC 25922

MIC [1, 4] [mg/L]	MIC (K. pneumoniae ATCC 33495; [5]) [mg/L]	MIC [2, 6] [mg/L]	MIC (H. influenzae ATCC 49247; [7]) [mg/L]	MIC (E. faecium ATCC 19434; [8]) [mg/L]	MIC (S. aureus ATCC 25923; [9]) [mg/L]	MIC (A. baumannii ATCC 19606; [10]) [mg/L]	MIC (S. pneumonia ATCC 49619; [11]) [mg/L]	MIC (P. aeruginosa ATCC 27853; [12]) [mg/L]	MIC [3, 4] [mg/L]	MIC (E. faecalis ATCC 29212; [13]) [mg/L]	MIC (E. coli ATCC 25922; [14]) [mg/L]	Structure (SMILES)	other results
> 8	0.5	> 8	0.016	0.5	0.032 to 0.064	4	0.032	8	0.032	0.032	0.125 to 0.25	Cc1c(-c2ccc(NC(N)=O)cc2)ccn2c(=O)c(C(=O)O)cc(C3CC3)c12 [Example 24 K salt, 1-cyclopropyl-9-methyl-4-oxo-8-(4-ureido-phenyl)-4H-quinolizine-3-carboxylic acid]	
0.5	0.25	0.125	0.008	0.5	0.016 to 0.032	0.5	0.064	8	0.016	0.032	0.125	Cc1c(-c2ccc(C(N)=O)cc2)ccn2c(=O)c(C(=O)O)cc(C3CC3)c12 [Example 36 K salt, 8-(4-carbamoyl-phenyl)-1-cyclopropyl-9-methyl-4-oxo-4H-quinolizine-3-carboxylic acid]	
0.25	0.064 to 0.25	0.125	0.008	0.25	0.008	0.064	0.064	1	0.008	0.032	0.032	Cc1c(-c2ccc(N)cc2)ccn2c(=O)c(C(=O)O)cc(C3CC3)c12 [Example 18 K salt, 8-(4-amino-phenyl)-1-cyclopropyl-9-methyl-4-oxo-4H-quinolizine-3-carboxylic acid]	
												Cc1c(-c2cc(F)c(N)c(F)c2)ccn2c(=O)c(C(=O)O)cc(C3CC3)c12 [Example 39 K salt, 8-(4-amino-3,5-difluoro-phenyl)-1-cyclopropyl-9-methyl-4-oxo-4H-quinolizine-3-carboxylic acid]	MIC [1]: 0.125 mg/L; MIC (K. pneumoniae ATCC 33495; ATCC33495, read-out: MIC K. pneumoniae ATCC 33495): 0.125 mg/L; MIC ([2]; ATCC17677, read-out: MIC S. maltophilia ATCC 17677): 0.064 mg/L; MIC (H. influenzae ATCC 49247; ATCC49247, read-out: MIC H. influenzae ATCC 49247): ≤ 0.004 mg/L; MIC (E. faecium ATCC 19434; ATCC19434, read-out: MIC E. faecium ATCC 19434): 0.25 mg/L; MIC (S. aureus ATCC 25923; ATCC25923, read-out: MIC S. aureus ATCC 25923): ≤ 0.004 mg/L; MIC (A. baumannii ATCC 19606; ATCC19606, read-out: MIC A. baumannii B. ATCC 19606): 0.064 mg/L; MIC (S. pneumonia ATCC 49619; ATCC49619, read-out: MIC S. pneumonia ATCC 49619): 0.032 mg/L; MIC (P. aeruginosa ATCC 27853; ATCC27853, read-out: MIC P. aeruginosa ATCC 27853): 2 mg/L; MIC [3]: ≤ 0.004 mg/L; MIC (E. faecalis ATCC 29212; ATCC29212, read-out: MIC E. faecalis ATCC 29212): 0.016 mg/L; MIC (E. coli ATCC 25922; ATCC25922, read-out: MIC E. coli ATCC 25922): 0.064 mg/L
2	0.125	0.25	0.008	4	0.016 to 0.032	0.25	0.5	4	0.032	0.125	0.064 to 0.125	Cc1c(-c2cc[nH]c2)ccn2c(=O)c(C(=O)O)cc(C3CC3)c12 [Example 43 K salt, 1-cyclopropyl-9-methyl-4-oxo-8-(1H-pyrrol-3-yl)-4H-quinolizine-3-carboxylic acid]	
0.25	0.125 to 0.25	0.25	0.008	0.5	0.008	0.125	0.032 to 0.064	4	0.008	0.032	0.064	Cc1c(-c2ccc(N)cc2F)ccn2c(=O)c(C(=O)O)cc(C3CC3)c12 [Example 7 K salt, 8-(4-amino-2-fluoro-phenyl)-1-cyclopropyl-9-methyl-4-oxo-4H-quinolizine-3-carboxylic acid]	
0.5 to 1	0.5	0.5	0.032	1	0.016 to 0.032	0.25 to 0.5	0.25	8	0.016	0.064	0.25	COc1cc(-c2ccn3c(=O)c(C(=O)O)cc(C4CC4)c3c2C)ccc1N [Example 12 K salt, 8-(4-amino-3-methoxy-phenyl)-1-cyclopropyl-9-methyl-4-oxo-4H-quinolizine-3-carboxylic acid]	
1	1	0.5	0.016 to 0.032	> 8	0.016	0.5 to 1	0.064	> 8	0.016	0.032	0.125	CNc1ccc(-c2ccn3c(=O)c(C(=O)O)cc(C4CC4)c3c2C)cc1 [Example 15 K salt, 1-cyclopropyl-9-methyl-8-(4-(methylamino)-phenyl)-4-oxo-4H-quinolizine-3-carboxylic acid]	
> 8	> 8	> 8	0.032	> 8	2	> 8	0.5 to 1	> 8	0.25	0.25	> 8	Cc1c(-c2ccc(C(=O)O)cc2)c(F)cn2c(=O)c(C(=O)O)cc(C3CC3)c12 [Example 41 K salt, 8-(4-carboxy-phenyl)-1-cyclopropyl-7-fluoro-9-methyl-4-oxo-4H-quinolizine-3-carboxylic acid]	
0.5 to 1	1 to 2	0.5	0.032	1	0.016	0.5	0.25	4	0.016	0.032 to 0.064	0.25	COc1ccc(-c2ccn3c(=O)c(C(=O)O)cc(C4CC4)c3c2C)cc1 [Example 47 K salt, 1-cyclopropyl-8-(4-methoxy-phenyl)-9-methyl-4-oxo-4H-quinolizine-3-carboxylic acid]	
8	0.25	2	0.125	> 8	1	2	2	2	0.5	4	0.064 to 0.125	Cc1c(N2CC[C@H](N)C2)ccn2c(=O)c(C(=O)O)cc(C3CC3)c12 [Example 27 K salt, 8-[(3S)-3-aminopyrrolidin-1-yl]-1-cyclopropyl-9-methyl-4-oxo-quinolizine-3-carboxylic acid]	
0.125	0.5 to 1	0.25	0.008 to 0.016	0.5	≤ 0.004	0.25	0.064	4	0.008	0.008 to 0.016	0.25	Cc1c(-c2cc(Cl)c(N)c(Cl)c2)ccn2c(=O)c(C(=O)O)cc(C3CC3)c12 [Example 29 K salt, 1-cyclopropyl-8-(4-amino-3,5-dichloro-phenyl)-9-methyl-4-oxo-4H-quinolizine-3-carboxylic acid]	
1	0.125	0.25	≤ 0.004	1	0.016	0.125 to 0.25	0.125	2 to 4	0.016	0.064	0.064	Cc1c(-c2cccnc2)ccn2c(=O)c(C(=O)O)cc(C3CC3)c12 [Example 17 K salt, 1-cyclopropyl-9-methyl-4-oxo-8-(pyridin-3-yl)-4H-quinolizine-3-carboxylic acid]	
